Literature values in US7179939B2, “Sodium ferric gluconate complexes and method of manufacture thereof” (priority 2004, dated 2007).

## sodium ferric gluconate complex in sucrose
Occur at a lower rate compared to iron dextran
  reactions associated with administration (severity): mild to moderate
Study comparing iron dextran with sodium ferric gluconate
  occurrence of allergic episodes: 3.3 allergic episodes per million doses
